pEC50: −log10 of the molar value. Read-outs that look alike come from different tables or passages of the source.

Data set [1] is described as follows: Dog pharmacokinetics in vivo. As to conditions: plasma, male Beagle dogs; for concentration at 8 h: read-out: C 8 h; for AUC(0-t): read-out: PO AUClast. The protocol:
The pharmacokinetics of compounds of the invention were studied in vivo in dogs.
Male Beagle dogs were treated with experimental compounds via intravenous administration (n=2; 0.5 mg/kg) or oral administration (n=2; 3 mg/kg or 4 mg/kg). Compounds were formulated as a solution in 20% dimethylacetamide/80% (2-hydroxypropyl)-β-cyclodextrin (20% w/v) (IV administration) or a solution in 10% dimethylacetamide/90% (2-hydroxypropyl)-β-cyclodextrin (20% w/v) (PO administration). […] Serial blood samples were collected from the jugular vein at 0.03, 0.08, 0.25, 0.5, 1, 2, 4, 6, 8 and 24 h post IV dosing of compound, and at 0.08, 0.25, 0.5, 1, 2, 4, 6, 8 and 24 h post oral dosing of compound, and plasma was prepared by centrifugation and stored immediately at −80° C. Samples were subsequently thawed, prepared for analysis by protein precipitation with acetonitrile, and analysed by tandem LCMS using electrospray ionisation using a matrix-matched calibration curve. PK parameters were calculated from the resulting data.

For data set [2], the system named is RSV A2. Briefly: RSV plaque reduction assay. As to conditions: human respiratory syncytial virus, HepG2; Hep-G2 cells, RSV A2, mean of at least two experiments. The data set is classed as cell-based, respiratory syncytial virus (RSV). The method, boiled down:
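RSV A2 (100 PFU/well) premixed with eight serial compound dilutions, added to confluent Hep-G2 monolayers for 2 h at 37° C, then held 2 days under CMC overlay containing compound (DMEM, 2% FBS). Plaques immunostained (HRP/TrueBlue) and counted; EC50 is 50% reduction versus virus control from 4-parameter fit, mean of ≥2 experiments.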
In general terms: Plaque reduction counts the foci of infection that form in a cell layer.

The mark [3] stands for this setting: IV 0.5 mg/kg, read-out: IV t1/2 (converted).
Setting [4] is: PO 4 mg/kg, read-out: PO t1/2 (converted).

As to `CC(C)Nc1ccc(-c2c(C(=O)N[C@H]3N=C(c4ccccc4)c4cccc(F)c4NC3=O)cnn2C2CCOCC2)c(F)n1` [Example 22, N-[(3S)-9-fluoro-2-oxo-5-phenyl-1,3-dihydro-1,4-benzodiazepin-3-yl]-5-[2-fluoro-6-(propan-2-ylamino)pyridin-3-yl]-1-(oxan-4-yl)pyrazole-4-carboxamide], in data set [1] (Dose: IV/PO 0.5/4 mg/kg), the concentration at 8 h is 281 ng/mL, the peak concentration (Cmax) came to 692 ng/mL and the bioavailability came to 40.1%. Moreover, in data set [1] (IV 0.5 mg/kg), the Vd was determined as 1.4 L/kg and the clearance was found to be 4.1 mL/min/kg. Moreover, the half-life in data set [1] (setting [3]) was 4.9 h. In data set [1] (PO 4 mg/kg), the AUC(0-t) is 6050 ng·h/mL. The half-life in data set [1] (setting [4]) was 6.8 h. In addition, the negative-log EC50 (pEC50) in data set [2] was 7.40.
`CCn1ncc(C(=O)N[C@H]2N=C(c3ccccc3)c3ccccc3NC2=O)c1-c1ccc(NC(C)C)nc1F` [Example 3, 1-Ethyl-5-[2-fluoro-6-(propan-2-ylamino)pyridin-3-yl]-N-[(3S)-2-oxo-5-phenyl-1,3-dihydro-1,4-benzodiazepin-3-yl]pyrazole-4-carboxamide]: the negative-log EC50 (pEC50) in data set [2] is 7.01.
Consider `O=C(N[C@H]1N=C(c2ccccc2)c2cccc(F)c2NC1=O)c1cnn(C2CCOCC2)c1-c1ccc(NC2CC2)nc1F` [Example 21, 5-[6-(Cyclopropylamino)-2-fluoropyridin-3-yl]-N-[(3S)-9-fluoro-2-oxo-5-phenyl-1,3-dihydro-1,4-benzodiazepin-3-yl]-1-(oxan-4-yl)pyrazole-4-carboxamide], for which, in data set [1] (Dose: IV/PO 0.5/3 mg/kg), the concentration at 8 h was determined as 146 ng/mL, the Cmax came to 500 ng/mL and the bioavailability was 33.6%. For the same compound, in data set [1] (IV 0.5 mg/kg), the Vd worked out at 1.3 L/kg and the clearance stood at 4.2 mL/min/kg. The half-life in data set [1] (setting [3]) is 7.6 h. For the same compound, in data set [1] (PO 3 mg/kg), the AUC(0-t) was 3610 ng·h/mL. Moreover, in data set [1] (PO 3 mg/kg, read-out: PO t1/2 (converted)), the half-life was 5.6 h. In data set [2], the pEC50 is 7.68.
In the case of `CCn1ncc(C(=O)N[C@H]2N=C(c3ccccc3)c3ccccc3NC2=O)c1-c1ccc(NC2CC2)nc1F` [Example 4, 1-Ethyl-5-[2-fluoro-6-(cyclopropylamino)pyridin-3-yl]-N-[(3S)-2-oxo-5-phenyl-1,3-dihydro-1,4-benzodiazepin-3-yl]pyrazole-4-carboxamide], in data set [1] (Dose: IV/PO 0.5/4 mg/kg), the concentration at 8 h is 56.1 ng/mL, the concentration peaked (Cmax) at 780 ng/mL and the bioavailability worked out at 41.5%. For the same compound, in data set [1] (IV 0.5 mg/kg), the Vd was 0.79 L/kg and the clearance turned out to be 10.3 mL/min/kg. Besides, the half-life in data set [1] (setting [3]) is 1 h. Also, the AUC(0-t) in data set [1] (PO 4 mg/kg) was found to be 2680 ng·h/mL. The half-life in data set [1] (setting [4]) was 2.3 h. The compound further had a pEC50 in data set [2] of 7.38.
For `CCNc1ccc(-c2c(C(=O)N[C@H]3N=C(c4ccccc4)c4cccc(F)c4NC3=O)cnn2C2CCOCC2)c(F)n1` [Example 24, 5-[6-(Ethylamino)-2-fluoropyridin-3-yl]-N-[(3S)-9-fluoro-2-oxo-5-phenyl-1,3-dihydro-1,4-benzodiazepin-3-yl]-1-(oxan-4-yl)pyrazole-4-carboxamide], in data set [1] (Dose: IV/PO 0.5/4 mg/kg), the concentration at 8 h was found to be 67 ng/mL, the Cmax was 450 ng/mL and the bioavailability worked out at 22.7%. Also, in data set [1] (IV 0.5 mg/kg), the volume of distribution (Vd) was 0.86 L/kg and the clearance was 6.5 mL/min/kg. Moreover, in data set [1] (setting [3]), the half-life is 1.5 h. Further, the AUC(0-t) in data set [1] (PO 4 mg/kg) is 2300 ng·h/mL. Further, in data set [1] (setting [4]), the half-life was 2.4 h. The same compound had a pEC50 in data set [2] of 7.48.

Usually Cmax stands for the maximum level reached in the sampled fluid or tissue. One may read the bioavailability as dose-corrected exposure relative to a reference, in per cent. A higher bioavailability goes with good availability. By Vd is commonly meant the apparent volume that relates the amount in the body to the concentration in plasma or blood. Read a high Vd as extensive tissue distribution. As a reminder, the clearance is the rate of elimination divided by the concentration. High values mean a high capacity for elimination, low ones a low capacity for elimination. What is called pEC50 is −log10 of the EC50, conventionally taken in molar units. Higher therefore signals a small EC50.

(Values after patent US20220409629A1, “BENZODIAZEPINE DERIVATIVES FOR TREATING A RESPIRATORY SYNCYTIAL VIRUS (RSV) INFECTION” (priority 2019, published 2022).)
